Literature values, collected in patent publication US7192954B2, “Monocyclic anilide spirohydantoin CGRP receptor antagonists” (Merck & Co., Inc., priority 2003, dated 2007).
Ends that are not written are not given here.

Legend:
marmoset = details: electrical stimulation of the trigeminal ganglion
rat = details: trigeminal ganglion stimulation
rats = details: electrical stimulation of the dura mater, prior administration

Compound | increase in facial blood flow (marmoset) | increase of facial blood flow (rat) | increase of the diameter of the middle meningeal artery (rats)
NCCCC[C@H](NC(=O)[C@@H](Cc1cc(Br)c(O)c(Br)c1)NC(=O)N1CCC(N2Cc3ccccc3NC2=O)CC1)C(=O)N1CCN(c2ccncc2)CC1 [BIBN4096BS] | blocked |  | 
CGRP(8–37): a peptide CGRP antagonist (VTHRLAGLLSRSGGVVKNNFVPTNVGSKAF; ends and bridges not checked; UniProt P06881 90-119, looked up, fragment) |  | inhibited | blocked
